Assay results: ChEMBL document CHEMBL5113511, “Discovery of Small-Molecule Degraders of the CDK9-Cyclin T1 Complex for Targeting Transcriptional Addiction in Prostate Cancer” (J Med Chem, 2022)
The source made the active and inactive calls. No cut-off for these calls is given here.

Assays:
Cyclin-T1 [1] = target: T1, Cyclin-T1 (Homo sapiens, UniProt O60563); assay: Induction of HyT-mediated degradation of Cyclin T1 in human 22Rv1 cells at 3 uM measured for 36 hrs by DIA-based proteomics analysis; assay type: cell-based
[2] = target: T2, CDK9/cyclin T1 (Homo sapiens) (UniProt O60563+P50750); assay: Induction of CDK9/Cyclin T1 degradation in human 22Rv1 cells assessed as downregulation of WNT2 gene expression at 2 uM incubated for 24 hrs by RNA-Seq based analysis; assay type: cell-based
[3] = target: Cyclin-dependent kinase 4 (Homo sapiens) (UniProt P11802); assay: Induction of CDK4 degradation in human 22Rv1 cells assessed as downregulation of CDK4 level at 3 uM measured after 12 hrs by DIA-based proteomics analysis; assay type: cell-based
Cyclin-T1 [4] = target: T1, Cyclin-T1; assay: Induction of HA-tagged Cyclin T1 (unknown origin) polyubiquitination expressed in HEK293T cells co-transfected with Flag-tagged CDK9 and Myc ubiquitin assessed as increase in K48-linkage poly-ubiqutinated Cyclin T1 level at 1 to 2 uM incubated for 20 hrs by western blot analysis; assay type: cell-based; details: dose 1-2 µM
[5] = target: T2, CDK9/cyclin T1 (Homo sapiens); assay: Induction of CDK9/Cyclin T1 degradation in human 22Rv1 cells assessed as downregulation of KLK2 gene expression at 2 uM incubated for 24 hrs by RNA-Seq based analysis; assay type: cell-based
[6] = target: T2, CDK9/cyclin T1 (Homo sapiens); assay: Induction of CDK9/Cyclin T1 degradation in human 22Rv1 cells assessed as downregulation of AKR1C3 gene expression at 2 uM incubated for 24 hrs by RNA-Seq based analysis; assay type: cell-based
Cyclin-T1 [7] = target: T1, Cyclin-T1; assay: Induction of HyT-mediated degradation of Cyclin T1 in human 22Rv1 cells at 0.3 to 3 uM incubated for 24 hrs by immunoblot analysis; assay type: cell-based; details: dose 0.3-3 µM
[8] = target: T2, CDK9/cyclin T1 (Homo sapiens); assay: Induction of CDK9/Cyclin T1 degradation in human 22Rv1 cells assessed as downregulation of NKX3-1 protein expression at 0.3 to 3 uM incubated fo 24 hrs by immunoblot analysis; assay type: cell-based; details: dose 0.3-3 µM
[9] = target: T2, CDK9/cyclin T1 (Homo sapiens); assay: Induction of CDK9/Cyclin T1 degradation in human 22Rv1 cells assessed as downregulation of VIM gene expression at 2 uM incubated for 24 hrs by RNA-Seq based analysis; assay type: cell-based
[10] = target: T2, CDK9/cyclin T1 (Homo sapiens); assay: Induction of CDK9/Cyclin T1 degradation in human 22Rv1 cells assessed as downregulation of c-Myc protein expression at 0.3 to 3 uM measured after 24 hrs by immunoblot analysis; assay type: cell-based; details: dose 0.3-3 µM
[11] = target: T2, CDK9/cyclin T1 (Homo sapiens); assay: Induction of CDK9/Cyclin T1 degradation in human 22Rv1 cells assessed as downregulation of SLC1A5 gene expression at 2 uM incubated for 24 hrs by RNA-Seq based analysis; assay type: cell-based
[12] = target: T2, CDK9/cyclin T1 (Homo sapiens); assay: Induction of CDK9/Cyclin T1 degradation in human 22Rv1 cells assessed as downregulation of AR-V7 splice variant protein expression at 0.3 to 3 uM measured after 24 hrs by immunoblot analysis; assay type: cell-based; details: dose 0.3-3 µM
[13] = target: T2, CDK9/cyclin T1 (Homo sapiens); assay: Induction of CDK9/Cyclin T1 degradation in human 22Rv1 cells assessed as downregulation of MCL1 protein expression at 0.3 to 3 uM incubated for 24 hrs by immunoblot analysis; assay type: cell-based; details: dose 0.3-3 µM
[14] = target: T2, CDK9/cyclin T1 (Homo sapiens); assay: Induction of CDK9/Cyclin T1 degradation in human 22Rv1 cells assessed as downregulation of TP53 gene expression at 2 uM incubated for 24 hrs by RNA-Seq based analysis; assay type: cell-based
[15] = target: T2, CDK9/cyclin T1 (Homo sapiens); assay: Induction of CDK9/Cyclin T1 degradation in human 22Rv1 cells assessed as decrease in cyclin B1 protein expression at 3 uM measured for 36 hrs by DIA-based proteomics analysis; assay type: cell-based
[16] = target: T2, CDK9/cyclin T1 (Homo sapiens); assay: Induction of CDK9/Cyclin T1 degradation in human 22Rv1 cells assessed as downregulation of c-Myc protein expression at 2 uM measured after 24 hrs by immunoblot analysis; assay type: cell-based
[17] = target: T3, Cyclin-dependent kinase 9 (Homo sapiens, UniProt P50750); assay: Induction of HyT-mediated degradation of CDK9 in human 22Rv1 cells incubated for 24 hrs by immunoblot analysis; assay type: cell-based
Cyclin-T1 [18] = target: T1, Cyclin-T1; assay: Induction of HyT-mediated degradation of Cyclin T1 in human 22Rv1 cells incubated for 24 hrs by immunoblot analysis; assay type: cell-based
[19] = target: T2, CDK9/cyclin T1 (Homo sapiens); assay: Induction of CDK9/Cyclin T1 degradation in human 22Rv1 cells assessed as downregulation of AR protein expression at 0.3 to 3 uM measured after 24 hrs by immunoblot analysis; assay type: cell-based; details: dose 0.3-3 µM
[20] = target: T2, CDK9/cyclin T1 (Homo sapiens); assay: Induction of CDK9/Cyclin T1 degradation in human 22Rv1 cells assessed as downregulation of JMJD6 protein expression at 2 uM measured after 24 hrs by immunoblot analysis; assay type: cell-based
[21] = target: T2, CDK9/cyclin T1 (Homo sapiens); assay: Induction of CDK9/Cyclin T1 degradation in human 22Rv1 cells assessed as downregulation of JMJD6 protein expression at 3 uM measured after 36 hrs by DIA-based proteomics analysis; assay type: cell-based
[22] = target: T3, Cyclin-dependent kinase 9; assay: Induction of HyT-mediated degradation of CDK9 in human 22Rv1 cells at 0.3 to 3 uM incubated for 24 hrs by immunoblot analysis; assay type: cell-based; details: dose 0.3-3 µM
[23] = target: T3, Cyclin-dependent kinase 9; assay: Induction of Hyt-mediated degradation of CDK9 in human 22Rv1 cells assessed as downregulation of CDK9 level at 2 uM incubated for 24 hrs by DIA-based proteomics analysis; assay type: cell-based
[24] = target: Cyclin-dependent kinase 6 (Homo sapiens) (UniProt Q00534); assay: Induction of CDK6 degradation in human 22Rv1 cells assessed as downregulation of CDK6 level at 3 uM measured after 12 hrs by DIA-based proteomics analysis; assay type: cell-based
[25] = target: T2, CDK9/cyclin T1 (Homo sapiens); assay: Induction of CDK9/Cyclin T1 degradation in human 22Rv1 cells assessed as downregulation of CDC6 gene expression at 2 uM incubated for 24 hrs by RNA-Seq based analysis; assay type: cell-based
Cyclin-T1 [26] = target: T1, Cyclin-T1; assay: Induction of HA-tagged Cyclin T1 (unknown origin) polyubiquitination expressed in HEK293T cells co-transfected with Flag-tagged CDK9 and Myc ubiquitin assessed as increase in K48-linkage poly-ubiqutinated Cyclin T1 level at 1 to 2 uM incubated for 20 hrs by immunoprecipitation analysis; assay type: cell-based; details: dose 1-2 µM
CWR22R = assay: Induction of cell cycle arrest in human 22Rv1 cells assessed as accumulation of cells at G1 phase at 0.3 to 1 uM incubated for 24 hrs by propidium iodide staining based flow cytometry; assay type: functional; details: dose 0.3-1 µM
[27] = target: T2, CDK9/cyclin T1 (Homo sapiens); assay: Induction of CDK9/Cyclin T1 degradation in human 22Rv1 cells assessed as inhibition of Ser2 phosphorylation of RNA Pol II CTD at 0.3 to 3 uM incubated for 24 hrs by immunoblot analysis; assay type: cell-based; details: dose 0.3-3 µM
Cyclin-T1 [28] = target: T1, Cyclin-T1; assay: Induction of HyT-mediated degradation of Cyclin T1 in human 22Rv1 cells assessed as reduction in Cyclin T1 protein level at 3 uM measured after 24 to 48 hrs by immunoblot analysis; assay type: cell-based; details: time 24-48 hrs
[29] = target: T2, CDK9/cyclin T1 (Homo sapiens); assay: Induction of CDK9/Cyclin T1 degradation in human 22Rv1 cells assessed as downregulation of NKX3-1 gene expression at 2 uM incubated for 24 hrs by RNA-Seq based analysis; assay type: cell-based
[30] = target: Glycogen synthase kinase-3 alpha (Homo sapiens) (UniProt P49840); assay: Induction of Hyt-mediated degradation of GSK3A in human 22Rv1 cells assessed as downregulation of GSK3A protein level at 2 uM incubated for 24 hrs by DIA-based proteomics analysis; assay type: cell-based
[31] = target: T2, CDK9/cyclin T1 (Homo sapiens); assay: Induction of CDK9/Cyclin T1 degradation in human 22Rv1 cells assessed as downregulation of AR-V7 splice variant protein expression at 2 uM measured after 48 hrs by immunoblot analysis relative to control; assay type: cell-based

T3 sequence (P50750 whole entry): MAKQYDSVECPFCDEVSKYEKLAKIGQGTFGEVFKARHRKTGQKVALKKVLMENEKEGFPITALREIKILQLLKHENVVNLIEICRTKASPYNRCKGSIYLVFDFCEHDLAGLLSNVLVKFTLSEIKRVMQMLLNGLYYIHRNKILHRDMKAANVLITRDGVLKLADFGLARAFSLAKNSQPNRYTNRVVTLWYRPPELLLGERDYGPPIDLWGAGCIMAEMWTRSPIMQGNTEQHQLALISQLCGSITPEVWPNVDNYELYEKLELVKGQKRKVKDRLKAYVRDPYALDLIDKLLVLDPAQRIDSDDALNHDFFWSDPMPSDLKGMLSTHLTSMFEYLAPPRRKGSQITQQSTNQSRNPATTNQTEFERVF
T1 sequence (O60563 whole entry): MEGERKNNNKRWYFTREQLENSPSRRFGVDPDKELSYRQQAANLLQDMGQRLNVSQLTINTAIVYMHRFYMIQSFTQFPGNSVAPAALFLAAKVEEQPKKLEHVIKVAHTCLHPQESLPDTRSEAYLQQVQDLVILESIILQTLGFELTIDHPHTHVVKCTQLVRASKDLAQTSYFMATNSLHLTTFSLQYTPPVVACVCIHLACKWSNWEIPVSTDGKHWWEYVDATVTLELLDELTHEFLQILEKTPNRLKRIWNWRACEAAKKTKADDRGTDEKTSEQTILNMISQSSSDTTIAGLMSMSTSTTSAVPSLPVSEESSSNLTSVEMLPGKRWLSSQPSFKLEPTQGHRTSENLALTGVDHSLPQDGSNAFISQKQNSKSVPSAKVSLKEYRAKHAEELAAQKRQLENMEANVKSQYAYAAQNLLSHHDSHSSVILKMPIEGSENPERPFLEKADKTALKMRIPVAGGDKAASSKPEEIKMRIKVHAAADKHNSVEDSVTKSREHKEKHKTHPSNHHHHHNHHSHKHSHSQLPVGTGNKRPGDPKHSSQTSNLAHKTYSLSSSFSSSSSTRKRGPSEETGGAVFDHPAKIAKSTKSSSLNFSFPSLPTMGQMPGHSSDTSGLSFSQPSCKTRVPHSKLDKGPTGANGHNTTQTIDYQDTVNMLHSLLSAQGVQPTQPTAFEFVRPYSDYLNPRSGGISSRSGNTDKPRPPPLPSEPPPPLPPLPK
Chain of Cyclin-dependent kinase 4 (Homo sapiens) (P11802 whole entry): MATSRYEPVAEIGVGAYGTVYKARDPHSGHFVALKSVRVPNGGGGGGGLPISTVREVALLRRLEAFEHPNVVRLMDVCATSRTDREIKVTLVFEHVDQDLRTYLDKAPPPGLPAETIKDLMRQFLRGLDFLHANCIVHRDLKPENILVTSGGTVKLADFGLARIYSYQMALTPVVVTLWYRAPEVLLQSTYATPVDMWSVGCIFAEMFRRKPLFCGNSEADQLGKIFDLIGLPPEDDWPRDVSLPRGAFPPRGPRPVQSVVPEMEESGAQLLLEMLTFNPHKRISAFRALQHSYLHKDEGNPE
Chain of Glycogen synthase kinase-3 alpha (Homo sapiens) (P49840 2-483 limits assumed): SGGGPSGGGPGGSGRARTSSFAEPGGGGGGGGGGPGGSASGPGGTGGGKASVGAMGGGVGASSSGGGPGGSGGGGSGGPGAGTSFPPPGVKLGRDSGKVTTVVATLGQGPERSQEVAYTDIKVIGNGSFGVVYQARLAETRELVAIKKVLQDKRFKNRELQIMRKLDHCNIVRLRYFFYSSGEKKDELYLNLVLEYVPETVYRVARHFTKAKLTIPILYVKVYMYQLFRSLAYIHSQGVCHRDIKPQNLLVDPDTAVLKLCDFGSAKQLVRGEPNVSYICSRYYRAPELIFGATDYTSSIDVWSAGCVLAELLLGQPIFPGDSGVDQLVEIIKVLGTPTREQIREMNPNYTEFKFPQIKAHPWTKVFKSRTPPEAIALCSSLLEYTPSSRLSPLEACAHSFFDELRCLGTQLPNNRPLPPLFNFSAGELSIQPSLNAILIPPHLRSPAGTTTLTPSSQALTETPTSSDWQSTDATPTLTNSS
Chain of Cyclin-dependent kinase 6 (Homo sapiens) (Q00534 whole entry): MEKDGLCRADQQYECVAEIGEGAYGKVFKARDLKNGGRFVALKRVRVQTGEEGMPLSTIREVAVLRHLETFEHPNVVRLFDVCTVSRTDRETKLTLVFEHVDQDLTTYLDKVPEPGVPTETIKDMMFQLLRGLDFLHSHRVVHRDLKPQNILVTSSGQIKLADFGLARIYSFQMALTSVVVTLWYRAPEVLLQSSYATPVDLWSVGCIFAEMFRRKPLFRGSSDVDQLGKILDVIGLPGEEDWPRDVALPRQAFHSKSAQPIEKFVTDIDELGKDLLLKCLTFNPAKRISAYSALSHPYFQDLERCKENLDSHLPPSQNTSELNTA

Activity (Cyclin-T1 [1]): Active | Activity [2]: Active | Activity [3]: Active | Activity (Cyclin-T1 [4]): Active | Activity [5]: Active | Activity [6]: Active | Activity (Cyclin-T1 [7]): Active | Activity [8]: Active | Activity [9]: Active | Activity [10]: Active | Activity [11]: Active | Activity [12]: Active | Activity [13]: Active | Activity [14]: Active | Activity [15]: Active | Activity [16]: Active | DC50 [17]: 662 nM | DC50 (Cyclin-T1 [18]): 589 nM | Activity [19]: Active | Activity [20]: Active | Activity [21]: Active | Activity [22]: Active | Activity [23]: Active | Activity [24]: Active | Activity [25]: Active | Activity (Cyclin-T1 [26]): Active | Activity [27]: Active | Activity (Cyclin-T1 [28]): Active | Activity [29]: Active | Activity [30]: Active | Activity [31]: 100%
SMILES: CC(C)[C@@H]1CC[C@@H](C)C[C@H]1OCC(=O)NCCS(=O)(=O)N1CCC(C(=O)Nc2ncc(SCc3ncc(C(C)(C)C)o3)s2)CC1
Activity (CWR22R): Active
